Among the test systems are SF-295 CNS; BT-549 breast; CAKI-1 renal; HCT-15 colon; SNB-19 CNS; UACC-257 melanoma; HT29 colon; SW-620 colon; IGROV1 ovarian; A498 renal.
Common to all, as to test: NCI-60 cell line screen, 48 h

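Dose response: 5 concentrations. Exposure: 48 h. Format: 96-well plates. Endpoint: linear interpolation; highest concentration if not reached. The concentration for 50% growth inhibition is given as GI50. Definition used: TGI = concentration required for complete inhibition of growth.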 A value given as a limit tells only on which side of the number the result lay.

Consider `COc1ccc(CCCC(=O)O)c(C)c1`, for which the TGI is above 100 µM in the assay with SF-295 CNS; above 100000 nM with BT-549 breast; 51.1 µM in the assay with CAKI-1 renal; above 100 µM in the assay on HCT-15 colon; above 100 µM in the assay with SNB-19 CNS; above 100 µM with UACC-257 melanoma. In addition, the TGI in the assay with HT29 colon was above 100 µM; in the assay with SW-620 colon, above 100 µM; in the assay with IGROV1 ovarian, above 100 µM; with A498 renal, 52.6 µM.
On to `CCOC(=O)c1c(C)[nH]c(/C=C2\N=C(c3ccc[nH]3)C=C2OC)c1C`, for which the GI50 with SF-295 CNS is 105 nM; in the assay with BT-549 breast, 41 nM; in the assay on CAKI-1 renal, 46.1 nM; in the assay with HCT-15 colon, below 10 nM; with SNB-19 CNS, 735 nM; with UACC-257 melanoma it was 40.2 nM. For the same molecule, the GI50 with HT29 colon is below 10 nM; with SW-620 colon, below 10 nM; in the assay with IGROV1 ovarian, 30.5 nM; in the assay on A498 renal, 1870 nM. Also, the TGI in the assay with SF-295 CNS was 0.624 µM; with BT-549 breast, 1480 nM; in the assay with CAKI-1 renal, 0.795 µM; in the assay with HCT-15 colon it was 1.07 µM; in the assay on SNB-19 CNS it was above 42.3 µM; in the assay on UACC-257 melanoma it was 1.46 µM. Besides, the TGI turned out to be 1.19 µM in the assay on HT29 colon, 1.33 µM in the assay on SW-620 colon, 1.09 µM in the assay on IGROV1 ovarian and 5.7 µM with A498 renal.
Regarding `NC(Cc1c[nH]c2ccccc12)C(=O)O` (centres undefined), the TGI in the assay with SF-295 CNS was above 300 µM; in the assay on CAKI-1 renal, above 300 µM; with HCT-15 colon, above 191 µM; in the assay on SNB-19 CNS it was above 300 µM; with UACC-257 melanoma, above 300 µM; in the assay on HT29 colon, above 300 µM. Moreover, the figures for the TGI in the assay with SW-620 colon, in the assay with IGROV1 ovarian and in the assay on A498 renal were above 300 µM, above 300 µM and above 13.9 µM, respectively.

Source of the values: PubChem BioAssay (NCI).
